The record followed here is article PMC10590383, “Repurposing conformational changes in ANL superfamily enzymes to rapidly generate biosensors for organic and amino acids” (Nature Communications, 2023).

For this experiment, the target named is T1, GECFINDER-Phe3 (Aneurinibacillus migulanus, UniProt P0C061).
T1 construct: gene grsA; GrsA-PheA-PCP; cpEGFP inserted in hinge B, linkers VF-QS
T1 sequence (P0C061 1-617): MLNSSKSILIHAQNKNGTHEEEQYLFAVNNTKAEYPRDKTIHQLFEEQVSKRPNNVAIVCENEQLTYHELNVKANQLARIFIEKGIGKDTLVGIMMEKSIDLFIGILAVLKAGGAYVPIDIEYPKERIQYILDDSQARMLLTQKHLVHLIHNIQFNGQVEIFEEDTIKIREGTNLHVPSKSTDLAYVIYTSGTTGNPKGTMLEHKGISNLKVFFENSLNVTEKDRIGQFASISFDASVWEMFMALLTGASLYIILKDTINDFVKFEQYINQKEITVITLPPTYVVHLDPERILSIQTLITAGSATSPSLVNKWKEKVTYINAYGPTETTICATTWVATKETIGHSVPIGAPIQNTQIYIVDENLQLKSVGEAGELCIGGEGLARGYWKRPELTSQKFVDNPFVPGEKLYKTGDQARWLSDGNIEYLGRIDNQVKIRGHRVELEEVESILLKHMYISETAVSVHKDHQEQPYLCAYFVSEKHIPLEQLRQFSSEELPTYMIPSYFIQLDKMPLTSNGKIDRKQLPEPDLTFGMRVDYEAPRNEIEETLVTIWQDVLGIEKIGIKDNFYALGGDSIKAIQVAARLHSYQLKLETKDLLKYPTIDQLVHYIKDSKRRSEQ
Kind of experiment: Fluorescence dose-response of purified […]-Phe3 with phenylalanine in 100 mM Tris at pH 6.5, room temperature, 1 mM ATP, 2.5 mM MgCl2. It is filed as biochemical. The following applies: n = 3. The text has this:
As cpEGFP is sensitive to pH, we conducted a dose-response curve and fluorescence intensity analysis of […]-Phe3 at varying pH levels. […] In addition, we expanded the range of ligand-binding domains (LBDs) applicable to […] and attempted optimization of insertion sites for cpEGFP with limited success. Please refer to Supplemental Note 1 for detailed information.
The study conducted dose–response curve, substrate specificity, and fluorescent spectrum analyses in 100-mM Tris buffer (pH = 7.5), while pH stability experiments were performed in 100-mM Tris buffer at three different pH values (6.5, 7.5, and 8.5) at room temperature. […] Fluorescent signals were detected using a Microplate Reader (Synergy H4, Bio Tek) at an excitation/emission wavelength of 460 nm/510 nm or 480 nm/510 nm. The dose-response curve was determined immediately after the addition of the analyte. The total duration of the measurement was 15 min, with readings taken at one-minute intervals. The dose-response curve was plotted using the fluorescence values obtained after achieving stability in the fluorescence signal. […] The thermal stability of […] was analyzed using the UNcle multifunctional protein stability analysis system. […] Absolute fluorescence quantum yields were measured using an absolute photoluminescence quantum yield spectrometer (FS5, Edinburgh). […]

A word on the EC50: it is the concentration giving half of the maximal effect. As for `N[C@@H](Cc1ccccc1)C(=O)O` [Phe, phenylalanine], the 50% effective concentration (EC50) was found to be 2030 nM.
